Test results: US20240009170A1, “INHIBITION OF GLYCOGEN SYNTHASE KINASE-3 (GSK-3)” (Brown University, priority 2020, published 2024)
“Also recorded” adds a separate entry of the source.

Key:
SW480 tumor cells = assay: Immune cell co-culture of TALL-104 T cells and SW480 tumor cells; format: cell-based, Human; conditions: for dead cells out of total cells, average, after normalization: 1:1 TALL-104 to SW480
Procedure: Immune cell co-culture experiments. Co-culture experiments were conducted with GFP+ SW480 or HCT-116 colorectal cancer cells and either NK-92 natural killer cells or TALL-104 T cells in a 48-well plate, in the presence or absence of 9-ING-41. HCT-116 cells were labeled using CellTracker™ Green CMFDA (5-chloromethylfluorescein diacetate), immune cells (NK-92, TALL-104) were labeled using CellTracker™ Blue CMAC Dye (7-amino-4-chloromethylcoumarin), and ethidium homodimer-1 (EthD-1) was used as a marker of cell death (Invitrogen, Thermo Fisher Scientific, Waltham, MA, USA).
Co-culture experiments were conducted with GFP+ SW480 colorectal cancer cells and either NK-92 natural killer cells or TALL-104 T cells at various effector/target ratios in a 48-well plate, in the presence or absence of 9-ING-41.
The compound 9-lNG-41 boosts immune cell-mediated tumor cell-killing in a co-culture model. A co-culture of GFP+ SW480 tumor cells and Green CMFDA-labeled TALL-104 T cells treated with 9-ING-41 lead to an increase in tumor cell death after twenty-four hours. […] In the co-culture with tumor and immune cells only, in the absence of drug, the inventors noted that the percentage of dead cells out of total cells was approximately 27%, after normalization. Normalization was carried out by subtracting the percentage of cell death due to drug or vehicle control (DMSO) only from the percentage of dead cells observed in the co-culture treated with drug.
Pre-treatment with 9-ING-41 sensitizes SW480 tumor cells to immune cell-mediated cell killing. To determine if the increased amount of immune-cell mediated tumor cell-killing was due to the drug's impact on the tumor cells or the immune cells, the inventors next pre-treated tumor cells with 9-ING-41 for twenty-four hours before the co-culture with immune cells began. Pre-treatment with 9-ING-41 sensitized SW480 tumor cells to TALL-104 cell-mediated cell killing. The raw percentages of cell death were used to normalize the data. The inventors confirmed these co-culture results using healthy, CD8+ T cells instead of TALL-104 cells.

HT-29 = assay: Flow cytometric analysis of cell surface markers, HT-29; format: cell-based, Human; conditions: post-treatment, 48 hours
Procedure: FIG. 12 is a set of bar graphs showing flow cytometric analyses of cell surface markers of tumor and immune cells treated with 9-ING-41 in vitro. FIG. 12(A) HCT-116, FIG. 12(B) HT-29, FIG. 12(C) TALL-104, and FIG. 12(D) NK-92 cells were treated with indicated concentrations of 9-ING-41 for forty-eight hours, stained for indicated cell surface marker expression, and analyzed with a BD LSRII. Statistical significance was determined using two-tailed unpaired T tests.
To further understand the differential 9-ING-41-mediated impacts on protein expression, the inventors treated tumor and immune cells in vitro with 9-ING-41, then performed a flow cytometric analysis for expression of cell surface markers. […] A similar trend occurred in HT-29 cells, although not statistically significant. […] FIG. 10(C). […] FIG. 10(D).

[1] = in vivo; cited from earlier work
CT-26 = assay: Syngeneic murine colon carcinoma BALB/c model with MSS cell line CT-26, survival and response; conditions: mouse, in vivo
Procedure: In vivo studies. […] Six to seven weeks old male BALB/c mice were purchased from Taconic. […] 100 μL was injected subcutaneously into the rear flanks. Once tumor volume reached at least 100 mm3, mice were randomly assigned to one of four groups (three mice/group): vehicle, ONC212, 2-DG, combination of ONC212 p2-DG. ONC212 was delivered by oral gavage at the dosage of 50 mg/kg in a solution of 70% phosphate-buffered serum, 10% DMSO, and 20% Kolliphor EL (Sigma-Aldrich, catalog no. C5135), three times per week. The treatment continued until mice developed signs of toxicity or discomfort from excessive tumor growth. Mice were weighed once a week to monitor signs of drug toxicity. The length (L) and width (VV) of the masses were measured three times per week with a digital caliper. The tumor volume was calculated applying the formula: 0.5LW2.
To evaluate the potential for 9-ING-41 to increase efficacy of immune checkpoint blockade, the inventors used a syngeneic murine colon carcinoma BALB/c murine model with a microsatellite stable (MSS) cell line CT-26.

**Q.** Which “dead cells out of total cells, average, after normalization” value (SW480 tumor cells; 5 μM 9-ING-41, 24-hour co-culture) does the source give for `Cn1cc(C2=C(c3coc4ccc(F)cc34)C(=O)NC2=O)c2cc3c(cc21)OCO3` [9-ING-41] here?
**A.** 33%

**Q.** What about the “dead cells out of total cells, average, after normalization” value (SW480 tumor cells; 10 μM 9-ING-41, 24-hour co-culture) of the same molecule?
**A.** 37%

**Q.** What about the “amount of TALL-104 cell-mediated SW480 cell-killing” value (SW480 tumor cells; after treatment, 24 hours) of the same molecule?
**A.** dose-dependent increase

**Q.** What about the “T cell (TALL-104) killing of colorectal cancer cells” value (SW480 tumor cells; compared to controls without drug treatment) of the same molecule?
**A.** significant increase

**Q.** What about the “tumor cell death in SW480 monocultures treated with drug only” value (SW480 tumor cells; monoculture, no immune cells) of the same molecule?
**A.** Limited tumor cell death

**Q.** What about the “TALL-104 cell-mediated cell killing after tumor cell pre-treatment” value (SW480 tumor cells; tumor cells pre-treated 24 hours before co-culture) of the same molecule?
**A.** sensitized

**Q.** And the “HLA-E and PD-L1 surface expression” value (HT-29)?
**A.** statistically significant increase

**Q.** What about the blood brain barrier [1] of the same molecule?
**A.** crosses the blood brain barrier

**Q.** And the “survival compared to control group” value (CT-26)?
**A.** statistically significant improved survival; also recorded: prolonged the survival
